For data set [1] the following is noted: free BAPN; quickly excreted and metabolized; cited from earlier work.
The test system of data set [2] is malignant mammary adenocarcinoma, code 13762 NM. Kind of data set: Single injection of lipophilic lathyrogen/polymeric carrier into mammary carcinoma (Example V). The class given is in vivo, rats. As to conditions: single intratumoral injection on day 10, in polymeric carrier with unmodified DPA or BAPN. The method, then:
In this Example V, Applicant prepared a formulation comprising methylester-DPA.HCl, i.e. Compound II wherein R1 is methyl and wherein R2 is hydrogen, and wherein X is chloride, or Hexyl(amino)-propionitrile, i.e. Compound IV, wherein R4 is hexyl, dispersed in a liquid polymeric carrier.
Applicant dispersed 1 gram of either methylester-DPA.HCl, or hexyl(amino) propionitrile, in combination with about 100 mg of the unmodified DPA or BAPN, respectively, in about 1 ml of the liquid polymer. After thorough mixing, 1 ml volume syringes were filled with Applicant's formulation. All preparations were performed at about 4° C., over crushed ice, and the syringes and needles used were refrigerated prior to loading. The loaded syringes were kept in a refrigerated vessel until used.
The rat model of solid tumor was described by Miller et al. (Proc Nat'l Acad Sci 90,3304,1993). Fischer 344 (F344) inbred female rats were used. The initial body weight was 100 grams, plus or minus about 7 grams. The right flank area was clipped, and the rats were tattooed for identification in the ear. […]
There were 6 rats per group. […] Once the implanted tumor was detectable, the size of that tumor was measured by caliper in two perpendicular directions.
The growth of each tumor was determined every second day. […]

Data set [3] deals with breast adenocarcinome. Kind of data set: Single injection into mammary carcinoma, breast adenocarcinome model (Example VI). The class given is in vivo, rats. The conditions noted are these: single intratumoral injection; FIG. 3. The method, then:
In this Example VI, Applicant studied the effect of various treatments on the tumor growth, survival rate, morphology, and metastases in Fisher rats of breast adenocarcinome model.
The method of Example V was used to prepare and inject tumor chunks into the test animals. In Example VI, Applicant used 5 groups of animals with 8 rats per group.
The preparation of the treatment modalities was as follows: • Group 1. Control • Group 2. Polymer Carrier only; used 1.5 ml polymer+1 ml water (polymer used: 38% PLGA-c-PEG in saline) • Group 3. 2 grams Polymeric Carrier+1.038 grams Hexyl ester DPA.HCl+200 mg DPA • Group 4. 800 mg Hexyl ester DPA.HCl+200 mg DPA+2 ml water • Group 5. 1.5 grams Polymeric Carrier+1.5 grams Hexyl (amino)propionitrile+200 mg BAPN Once mixed, all materials were kept on ice until injection time. The various formulations were injected into the tumor using a 23 gauge needle. The retains of Groups 2, 3, and 5, remained pourable after 2–3 hours at 82° F.

Data set [4] in a line: Rate of release of lathyrogen from polymeric carrier HYPA(N-30) into saline. In kind it is physicochemical. The conditions noted are these: for Percent Released: from HYPA(N-30) carrier into saline, 37° C. How it is done: Applicant compared the rate of release from a polymeric carrier of unmodified […] hydrophilic lathyrogen, and a lipophilic D-penicillamine adduct formed by reacting DPA with hexanaldehyde using a published synthetic procedure. Both lathyrogens were dispersed in a polyacrylonitrile (“PAN”) polymer sold in commerce by SKY Polymers, Princeton, N.J. under the tradename HYPA(N-30). The HYPA(N-30) was dissolved in 100% DMSO. Water drowning this DMSO/HYPA(N-30)/lipophilic DPA solution, using a syringe with a 16 gauge needle attached, into saline (0.9% NaCl in water W/v) forms a flexible, solid string. The […] was kept at 37° C., and the incubation jar was minimally shaken. At the times recited in Table 1, an aliquot of the incubation medium was collected and the amount of released D-penicillamine was determined using a reaction between ninhydrin and the free amino groups on the released DPA. […] The ninhydrin reaction requires heating the sample at 100° C., thus freeing the amino group. Table 1 recites the results.

Data set [5] has as its system B-16 melanoma cells. Kind of data set: Repeated injections of DPA into melanoma tumor (Example IV). In kind it is in vivo, mice. The conditions noted are these: for Volume of melanoma tumor: 5 mg DPA in 0.2 ml saline daily, intratumoral, average. The method, then:
Female mice, standard inbred C 57/Black, having between about 20 to about 25 g body weight were injected s.c. in the right flank region with 0.1 ml of […] B-16 melanoma cells. These cells are harvested in their end of the log phase growth. These cells come from a tissue culture, using RPMI 1640 medium with 10% FBS enriched with 1-glutamine, penicillin and streptomycin. Cells are harvested by trypsinization, counted, suspended in sterile PBS, and injected in 0.1 ml s.c. in flank region. There were 4 mice per group.
Injection of these melanoma cells resulted within 10 days post injection to a tumor weight of about 1.5 g. Tumor volumes were monitored 3× per week by caliper (MITUYO digital, Smalls Parts Inc., Phoenix, Ariz.) in two perpendicular directions and once per week for body weight. Tumor volume in cubic millimeters is calculated by the formula: (length×(width^2))/2.
Monitoring was continued up to 4 weeks. When the control animals began to die from the tumor burden, the experiment was terminated. Individual animals were terminated once the tumor volume exceeded 20% of mice weight, or when the body weight loss exceeded 20% of the starting body weight.
Table 2 recites the volume, in cubic millimeters, of the melanoma tumor injected daily with 5 mg DPA in 0.2 ml of saline. The treatment was administered once the tumor reached a detectable and measurable size. Average volumes are recited in Table 2. […] There was no effect on body weight or animals behavior.

The conditions of data set [6]: known properties; cited from earlier work.
The conditions of data set [7]: cited from earlier work.

The text below walks through data of US7199156B2, “Composition and method to treat solid tumors” (priority 2003, dated 2007).

Entries after “also recorded” stand apart in the source; their conditions may differ. Marks after values point to notes of the source that are not given here.

With `N#CCCN` [BAPN, beta-aminopropionitrile], the duration of activity entry in data set [1] is listed as “no more than 24 hours”.

Consider `CCCCCCNCCC#N` [Hexylamino-propionitrile, Hexyl(amino)-propionitrile], for which the “growth of the tumor” value in data set [2] is “markedly inhibited; also recorded: inhibitory effect”.

With `COC(=O)[C@H](N)C(C)(C)S.Cl` [methylester-DPA.HCl, DPA-Methylester Hydrochloride], the “growth of the tumor” value in data set [2] (Hydrochloride) was “even more pronounced inhibition of tumor growth; also recorded: inhibitory effect”. In addition, the tumor growth result in data set [3] is “effective”.

In the case of D-Pencillamine [DPA], the “time over which released from the polymeric carrier” value in data set [4] (FIG. 1) is recorded as “a few hours”. Further, the figures for the “Percent Released” value in data set [4] (Time 0.1 hours), in data set [4] (Time 2 hours) and in data set [4] (Time 20 hours) were 29%, 89% and 100%, respectively. Besides, the “effect on body weight or animals behavior” value in data set [5] (daily intratumoral 5 mg DPA) is on record as “no effect”. The “Volume of melanoma tumor” value in data set [5] (day 0 after detectable tumor was injected) is on record as 89 cubic millimeters; in data set [5] (day 2), 174* cubic millimeters; in data set [5] (day 5), 806* cubic millimeters; in data set [5] (day 7), 816* cubic millimeters; in data set [5] (day 9) it was 486* cubic millimeters. Also, the “Toxicity In local administration” value in data set [6] is listed as “none”. Besides, the “Toxicity in systemic administration” value in data set [6] was “yes”. For the same compound, in data set [7], the “solubility in aqueous media, such as tissue fluid” value was “very soluble”.
